Measured values from the NIST ThermoML archive (doi:10.1016/j.fluid.2006.03.015).

Assay: molar heat capacity at constant pressure
Settings: 101.33 kPa, Liquid

CCCCCCn1cc[n+](C)c1.O=S(=O)([O-])C(F)(F)F [1-hexyl-3-methylimidazolium trifluoromethanesulfonate]
Settings | molar heat capacity at constant pressure [J/K/mol]
313.14 K, Large sample (1 g) DSC | 517
315.15 K, Small sample (50 mg) DSC | 526
318.15 K, Large sample (1 g) DSC | 522
320.15 K, Small sample (50 mg) DSC | 528
323.17 K, Large sample (1 g) DSC | 525
325.15 K, Small sample (50 mg) DSC | 530
328.13 K, Large sample (1 g) DSC | 527
328.15 K, modulated-temperature differential scanning calorimetry MDSC | 519
330.15 K, Small sample (50 mg) DSC | 532
333.15 K, Large sample (1 g) DSC | 528
333.15 K, modulated-temperature differential scanning calorimetry MDSC | 522
335.15 K, Small sample (50 mg) DSC | 536
338.15 K, modulated-temperature differential scanning calorimetry MDSC | 524
338.16 K, Large sample (1 g) DSC | 531
340.15 K, Small sample (50 mg) DSC | 539
343.15 K, modulated-temperature differential scanning calorimetry MDSC | 528
343.16 K, Large sample (1 g) DSC | 534
345.15 K, Small sample (50 mg) DSC | 541
348.15 K, modulated-temperature differential scanning calorimetry MDSC | 530
348.16 K, Large sample (1 g) DSC | 535
350.15 K, Small sample (50 mg) DSC | 545
353.15 K, modulated-temperature differential scanning calorimetry MDSC | 532
353.18 K, Large sample (1 g) DSC | 539
355.15 K, Small sample (50 mg) DSC | 548
358.12 K, Large sample (1 g) DSC | 542
358.15 K, modulated-temperature differential scanning calorimetry MDSC | 535
360.15 K, Small sample (50 mg) DSC | 551
363.15 K, modulated-temperature differential scanning calorimetry MDSC | 538
363.17 K, Large sample (1 g) DSC | 545
365.15 K, Small sample (50 mg) DSC | 554
368.15 K, Large sample (1 g) DSC | 548
368.15 K, modulated-temperature differential scanning calorimetry MDSC | 540
370.15 K, Small sample (50 mg) DSC | 556
373.15 K, modulated-temperature differential scanning calorimetry MDSC | 543
373.17 K, Large sample (1 g) DSC | 550
375.15 K, Small sample (50 mg) DSC | 559
378.15 K, modulated-temperature differential scanning calorimetry MDSC | 544
378.17 K, Large sample (1 g) DSC | 552
380.15 K, Small sample (50 mg) DSC | 562
383.15 K, modulated-temperature differential scanning calorimetry MDSC | 547
383.17 K, Large sample (1 g) DSC | 555
385.15 K, Small sample (50 mg) DSC | 565
388.15 K, modulated-temperature differential scanning calorimetry MDSC | 549
388.16 K, Large sample (1 g) DSC | 558
390.15 K, Small sample (50 mg) DSC | 568
393.15 K, Large sample (1 g) DSC | 560
393.15 K, modulated-temperature differential scanning calorimetry MDSC | 552
395.15 K, Small sample (50 mg) DSC | 571
398.15 K, modulated-temperature differential scanning calorimetry MDSC | 554
398.18 K, Large sample (1 g) DSC | 562
400.15 K, Small sample (50 mg) DSC | 574
403.15 K, modulated-temperature differential scanning calorimetry MDSC | 556
403.16 K, Large sample (1 g) DSC | 564
405.15 K, Small sample (50 mg) DSC | 577
408.13 K, Large sample (1 g) DSC | 566
408.15 K, modulated-temperature differential scanning calorimetry MDSC | 557
410.15 K, Small sample (50 mg) DSC | 580
413.15 K, modulated-temperature differential scanning calorimetry MDSC | 562
413.16 K, Large sample (1 g) DSC | 569
415.15 K, Small sample (50 mg) DSC | 583
418.15 K, Large sample (1 g) DSC | 573
420.15 K, Small sample (50 mg) DSC | 586
423.17 K, Large sample (1 g) DSC | 572
425.15 K, Small sample (50 mg) DSC | 589

CCCCCCCCn1cc[n+](C)c1.O=S(=O)([O-])C(F)(F)F [1-octyl-3-methylimidazolium trifluoromethanesulfonate]
Settings | molar heat capacity at constant pressure [J/K/mol]
313.17 K, Large sample (1 g) DSC | 588
315.15 K, Small sample (50 mg) DSC | 604
318.14 K, Large sample (1 g) DSC | 592
320.15 K, Small sample (50 mg) DSC | 608
323.13 K, Large sample (1 g) DSC | 595
325.15 K, Small sample (50 mg) DSC | 612
328.13 K, Large sample (1 g) DSC | 595
328.15 K, modulated-temperature differential scanning calorimetry MDSC | 599
330.15 K, Small sample (50 mg) DSC | 612
333.14 K, Large sample (1 g) DSC | 595
333.15 K, modulated-temperature differential scanning calorimetry MDSC | 603
335.15 K, Small sample (50 mg) DSC | 616
338.14 K, Large sample (1 g) DSC | 598
338.15 K, modulated-temperature differential scanning calorimetry MDSC | 606
340.15 K, Small sample (50 mg) DSC | 620
343.14 K, Large sample (1 g) DSC | 599
343.15 K, modulated-temperature differential scanning calorimetry MDSC | 609
345.15 K, Small sample (50 mg) DSC | 623
348.15 K, modulated-temperature differential scanning calorimetry MDSC | 612
348.17 K, Large sample (1 g) DSC | 599
350.15 K, Small sample (50 mg) DSC | 627
353.13 K, Large sample (1 g) DSC | 601
353.15 K, modulated-temperature differential scanning calorimetry MDSC | 616
355.15 K, Small sample (50 mg) DSC | 631
358.15 K, Large sample (1 g) DSC | 605
358.15 K, modulated-temperature differential scanning calorimetry MDSC | 619
360.15 K, Small sample (50 mg) DSC | 634
363.15 K, Large sample (1 g) DSC | 610
363.15 K, modulated-temperature differential scanning calorimetry MDSC | 622
365.15 K, Small sample (50 mg) DSC | 637
368.15 K, Large sample (1 g) DSC | 616
368.15 K, modulated-temperature differential scanning calorimetry MDSC | 625
370.15 K, Small sample (50 mg) DSC | 641
373.14 K, Large sample (1 g) DSC | 617
373.15 K, modulated-temperature differential scanning calorimetry MDSC | 628
375.15 K, Small sample (50 mg) DSC | 644
378.12 K, Large sample (1 g) DSC | 621
378.15 K, modulated-temperature differential scanning calorimetry MDSC | 631
380.15 K, Small sample (50 mg) DSC | 648
383.15 K, modulated-temperature differential scanning calorimetry MDSC | 635
383.16 K, Large sample (1 g) DSC | 626
385.15 K, Small sample (50 mg) DSC | 652
388.15 K, Large sample (1 g) DSC | 631
388.15 K, modulated-temperature differential scanning calorimetry MDSC | 637
390.15 K, Small sample (50 mg) DSC | 655
393.13 K, Large sample (1 g) DSC | 636
393.15 K, modulated-temperature differential scanning calorimetry MDSC | 640
395.15 K, Small sample (50 mg) DSC | 658
398.15 K, modulated-temperature differential scanning calorimetry MDSC | 642
398.17 K, Large sample (1 g) DSC | 639
400.15 K, Small sample (50 mg) DSC | 663
403.14 K, Large sample (1 g) DSC | 642
403.15 K, modulated-temperature differential scanning calorimetry MDSC | 645
405.15 K, Small sample (50 mg) DSC | 666
408.15 K, modulated-temperature differential scanning calorimetry MDSC | 648
408.18 K, Large sample (1 g) DSC | 644
410.15 K, Small sample (50 mg) DSC | 670
413.15 K, Large sample (1 g) DSC | 647
413.15 K, modulated-temperature differential scanning calorimetry MDSC | 651
415.15 K, Small sample (50 mg) DSC | 673
418.18 K, Large sample (1 g) DSC | 649
420.15 K, Small sample (50 mg) DSC | 677
423.14 K, Large sample (1 g) DSC | 651
425.15 K, Small sample (50 mg) DSC | 680

c1ccccc1 [benzene]
Small sample (50 mg) DSC
Settings | molar heat capacity at constant pressure [J/K/mol]
295.15 K | 134.8
300.15 K | 135.4
305.15 K | 136.5
310.15 K | 137.9
315.15 K | 139.2
320.15 K | 140.85
325.15 K | 142.5
330.15 K | 144.15
335.15 K | 145.8
340.15 K | 147.55
345.15 K | 149.3
350.15 K | 151.2

C1CCOC1 [tetrahydrofuran]
Small sample (50 mg) DSC
Settings | molar heat capacity at constant pressure [J/K/mol]
180.15 K | 105.5
185.15 K | 105.6
190.15 K | 105.8
195.15 K | 106
200.15 K | 106.3
205.15 K | 106.5
210.15 K | 106.7
215.15 K | 107.2
220.15 K | 107.6
225.15 K | 107.9
230.15 K | 108.5
235.15 K | 109.2
240.15 K | 109.8
245.15 K | 110.6
250.15 K | 111.5
255.15 K | 112.4
260.15 K | 113.4
265.15 K | 114.4
270.15 K | 115.5
275.15 K | 116.6
280.15 K | 117.9
285.15 K | 119.2
290.15 K | 120.3
295.15 K | 121.7
300.15 K | 123.1
305.15 K | 124.5
310.15 K | 126
315.15 K | 127.3
320.15 K | 128.8
325.15 K | 130.5

O [water]
Small sample (50 mg) DSC
Settings | molar heat capacity at constant pressure [J/K/mol]
305.15 K | 74.95
310.15 K | 74.96
315.15 K | 74.9
320.15 K | 74.93
325.15 K | 75.01
330.15 K | 75.09
335.15 K | 75.11
340.15 K | 75.23
345.15 K | 75.31
350.15 K | 75.43
355.15 K | 75.53
360.15 K | 75.59
365.15 K | 75.72
370.15 K | 75.8
